Earlier results, collected in article PMC3171802 (Chemistry & biology, 2011).

System: Ba/F3 cells transformed to IL-3 independence by overexpression of PIM1 or PIM2
Conditions: ref Pogacic et al., 2007

CC(=O)c1cccc(-c2cnc3ccc(NCC4CC4)nn23)c1 [Compound K00135]
survival of Ba/F3 cells transformed by PIM1 or PIM2: significantly impaired survival
